According to patent US8530648B2, “Diaza-spiro[5.5]undecanes” (Novartis AG, priority 2009, dated 2013):

What was measured:
[1] = biological target: hOx1R (Homo sapiens (Human), UniProt O43613); test: Calcium accumulation in cells (FLIPR), hOx1R; assay type: cell-based; conditions: for Ki: inhibition of orexin A induced calcium accumulation, Cheng and Prusoff correction; for inhibition at 10 µM: measured at a concentration of 10 μM of compound
Procedure: (§1) Calcium Accumulation in Cells (FLIPR):
(§2) Cells expressing human orexin 1 or human orexin 2 receptors, were seeded at 8,000 cells/well in 384 well black-walled clear bottom, poly-D-lysine coated plates. After 24 h, the medium was removed and cells were washed once with phosphate buffered saline and serum-deprived overnight in assay buffer (130 mM NaCl, 5.4 mM KCl, 1.8 mM CaCl2, 0.8 mM MgSO4, 0.9 mM NaH2PO4, 25 mM glucose, 20 mM HEPES, pH 7.4) containing bovine serum albumin (1% w/v).
(§3) On the day of the experiment, the cells seeded in black plates were treated with assay buffer containing the Ca^2+ sensitive fluorescent dye Fluo-4-AM (2 μM), and probenecid (0.1 mM). After 1 h plates were washed twice with, and resuspended in, assay buffer containing probenecid (0.1 mM) using a multi plate washer. […] Fluorescence measurements were then continued every 1 S for 120 S followed by every 4 S for 240 S.
(§4) The measurements were typically made in two sequences:
(§5) Compounds of formula I were tested usually in a concentration range from 10^−9 M to 10^−5 M.
(§6) In the second round, performed one hour later (to allow for equilibration), Orexin A was tested either in the absence (calibration curves, Orexin A agonist controls) or in the presence of compounds of formula I to determine antagonism.

[2] = biological target: hOx2R (Homo sapiens (Human), UniProt O43614); test: Calcium accumulation in cells (FLIPR), hOx2R; assay type: cell-based; conditions: for Ki: inhibition of orexin A induced calcium accumulation, Cheng and Prusoff correction; for inhibition at 10 µM: measured at a concentration of 10 μM of compound
Sequence of hOx2R (O43614 whole entry): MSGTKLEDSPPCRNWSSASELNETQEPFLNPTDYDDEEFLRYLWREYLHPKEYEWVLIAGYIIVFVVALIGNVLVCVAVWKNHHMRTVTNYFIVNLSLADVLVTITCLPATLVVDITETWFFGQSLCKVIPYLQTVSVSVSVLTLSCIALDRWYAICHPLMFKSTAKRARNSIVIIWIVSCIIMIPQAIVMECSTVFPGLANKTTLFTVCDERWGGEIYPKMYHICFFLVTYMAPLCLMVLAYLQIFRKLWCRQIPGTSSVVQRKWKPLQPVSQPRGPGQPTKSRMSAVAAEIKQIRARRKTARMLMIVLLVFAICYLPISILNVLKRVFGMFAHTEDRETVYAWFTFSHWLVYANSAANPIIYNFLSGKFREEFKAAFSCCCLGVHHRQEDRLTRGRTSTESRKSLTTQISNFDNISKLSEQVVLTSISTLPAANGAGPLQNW
Procedure: as §1, §2, §3, §4, §5, §6

Sequence of hOx1R (O43613 whole entry): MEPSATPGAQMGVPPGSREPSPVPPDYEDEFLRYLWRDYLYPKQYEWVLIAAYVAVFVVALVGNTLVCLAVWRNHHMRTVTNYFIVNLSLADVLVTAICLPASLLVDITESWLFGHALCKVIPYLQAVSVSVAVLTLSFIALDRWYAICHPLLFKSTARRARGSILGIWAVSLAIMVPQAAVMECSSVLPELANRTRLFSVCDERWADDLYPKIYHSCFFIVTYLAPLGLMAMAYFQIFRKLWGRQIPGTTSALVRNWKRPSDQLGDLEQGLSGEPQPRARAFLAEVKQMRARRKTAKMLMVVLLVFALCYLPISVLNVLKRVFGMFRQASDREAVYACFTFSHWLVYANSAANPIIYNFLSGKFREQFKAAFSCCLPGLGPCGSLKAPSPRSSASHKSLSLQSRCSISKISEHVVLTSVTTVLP

SMILES | Ki [1] | Ki [2] | inhibition at 10 µM [1] | inhibition at 10 µM [2]
O=C1N(Cc2ccnc(Br)c2)CCCC12CCN(c1cnc3ccccc3n1)CC2 [Example 72, 2-((2-bromopyridin-4-yl)methyl)-9-(quinoxalin-2-yl)-2,9-diazaspiro[5.5]undecan-1-one] | 3.1 µM | 0.452 µM |  | 
CC(c1c[nH]c2ccccc12)N1CCCC2(CCN(c3cnc4ccccc4n3)CC2)C1=O (stereo not shown) [Example 74, 2-(1-(1H-indol-3-yl)ethyl)-9-(quinoxalin-2-yl)-2,9-diazaspiro[5.5]undecan-1-one] | 0.675 µM | 0.185 µM |  | 
O=C1N(Cc2nnc3ccccn23)CCCC12CCN(c1cnc3ccccc3n1)CC2 [Example 75, 2-([1,2,4]triazolo[4,3-a]pyridin-3-ylmethyl)-9-(quinoxalin-2-yl)-2,9-diazaspiro[5.5]undecan-1-one] |  |  | 22% | 35%
Cn1nc2ccccc2c1CN1CCCC2(CCN(c3cnc4ccccc4n3)CC2)C1=O [Example 76, 2-((2-methyl-2H-indazol-3-yl)methyl)-9-(quinoxalin-2-yl)-2,9-diazaspiro[5.5]undecan-1-one] |  | 0.559 µM | 44% | 
O=C1N(Cc2ccc(Cl)nc2)CCCC12CCN(c1cnc3ccccc3n1)CC2 [Example 78, 2-((6-chloropyridin-3-yl)methyl)-9-(quinoxalin-2-yl)-2,9-diazaspiro[5.5]undecan-1-one] |  |  | 15% | 32%
O=C1N(Cc2cnn3ccccc23)CCCC12CCN(c1cnc3ccccc3n1)CC2 [Example 79, 2-(pyrazolo[1,5-a]pyridin-3-ylmethyl)-9-(quinoxalin-2-yl)-2,9-diazaspiro[5.5]undecan-1-one] | 2.15 µM | 0.232 µM |  | 
COCc1cccc(CN2CCCC3(CCN(c4cnc5ccccc5n4)CC3)C2=O)c1 [Example 80, 2-(3-(methoxymethyl)benzyl)-9-(quinoxalin-2-yl)-2,9-diazaspiro[5.5]undecan-1-one] | 2.99 µM | 0.096 µM |  | 
O=C1N(Cc2ccc(-n3cncn3)cc2)CCCC12CCN(c1cnc3ccccc3n1)CC2 [Example 81, 2-(4-(1H-1,2,4-triazol-1-yl)benzyl)-9-(quinoxalin-2-yl)-2,9-diazaspiro[5.5]undecan-1-one] |  | 1.58 µM | 13% | 
Cc1cc(CN2CCCC3(CCN(c4cnc5ccccc5n4)CC3)C2=O)nn1C [Example 84, 2-((1,5-dimethyl-1H-pyrazol-3-yl)methyl)-9-(quinoxalin-2-yl)-2,9-diazaspiro[5.5]undecan-1-one] |  |  | 40% | 46%
O=C1N(Cc2ccccc2-n2cccn2)CCCC12CCN(c1cnc3ccccc3n1)CC2 [Example 85, 2-(2-(1H-pyrazol-1-yl)benzyl)-9-(quinoxalin-2-yl)-2,9-diazaspiro[5.5]undecan-1-one] |  | 0.822 µM | 15% | 
O=C1N(Cc2nccn2Cc2ccccc2)CCCC12CCN(c1cnc3ccccc3n1)CC2 [Example 86, 2-((1-benzyl-1H-imidazol-2-yl)methyl)-9-(quinoxalin-2-yl)-2,9-diazaspiro[5.5]undecan-1-one] |  | 0.372 µM | 47% | 
Cc1cc(CN2CCCC3(CCN(c4cnc5ccccc5n4)CC3)C2=O)no1 [Example 88, 2-((5-methylisoxazol-3-yl)methyl)-9-(quinoxalin-2-yl)-2,9-diazaspiro[5.5]undecan-1-one] |  |  | 11% | 25%
O=C1N(Cc2noc(C3CCC3)n2)CCCC12CCN(c1cnc3ccccc3n1)CC2 [Example 89, 2-((5-cyclobutyl-1,2,4-oxadiazol-3-yl)methyl)-9-(quinoxalin-2-yl)-2,9-diazaspiro[5.5]undecan-1-one] |  |  | 29% | 24%
O=C1N(Cc2ccc(C(F)(F)F)nc2)CCCC12CCN(c1cnc3ccccc3n1)CC2 [Example 90, 9-(quinoxalin-2-yl)-2-((6-(trifluoromethyl)pyridin-3-yl)methyl)-2,9-diazaspiro[5.5]undecan-1-one] |  |  | 17% | 12%
COc1ccnc(CN2CCCC3(CCN(c4cnc5ccccc5n4)CC3)C2=O)c1OC [Example 91, 2-((3,4-dimethoxypyridin-2-yl)methyl)-9-(quinoxalin-2-yl)-2,9-diazaspiro[5.5]undecan-1-one] | 2.87 µM |  |  | 38%
N#Cc1cccc(CN2CCCC3(CCN(c4cnc5ccccc5n4)CC3)C2=O)c1 [Example 92, 3-((1-oxo-9-(quinoxalin-2-yl)-2,9-diazaspiro[5.5]undecan-2-yl)methyl)benzonitrile] | 3.06 µM | 0.649 µM |  | 
O=C1N(Cc2nccc3ccccc23)CCCC12CCN(c1cnc3ccccc3n1)CC2 [Example 93, 2-(isoquinolin-1-ylmethyl)-9-(quinoxalin-2-yl)-2,9-diazaspiro[5.5]undecan-1-one] | 1.31 µM | 0.158 µM |  | 
N#Cc1cc(CN2CCCC3(CCN(c4cnc5ccccc5n4)CC3)C2=O)ccc1F [Example 94, 2-fluoro-5-((1-oxo-9-(quinoxalin-2-yl)-2,9-diazaspiro[5.5]undecan-2-yl)methyl)benzonitrile] | 1.7 µM | 0.282 µM |  | 
O=C1N(Cc2cc(=O)[nH]c3ccccc23)CCCC12CCN(c1cnc3ccccc3n1)CC2 [Example 96, 4-((1-oxo-9-(quinoxalin-2-yl)-2,9-diazaspiro[5.5]undecan-2-yl)methyl)quinolin-2(1H)-one] | 2.4 µM | 0.631 µM |  | 
Cc1cccc(CN2CCCC3(CCN(c4cnc5ccccc5n4)CC3)C2=O)n1 [Example 97, 2-((6-methylpyridin-2-yl)methyl)-9-(quinoxalin-2-yl)-2,9-diazaspiro[5.5]undecan-1-one] |  |  | 14% | 33%
N#Cc1ccc(F)c(CN2CCCC3(CCN(c4cnc5ccccc5n4)CC3)C2=O)c1 [Example 99, 4-fluoro-3-((1-oxo-9-(quinoxalin-2-yl)-2,9-diazaspiro[5.5]undecan-2-yl)methyl)benzonitrile] | 1.1 µM | 0.142 µM |  | 
N#Cc1ccc(CN2CCCC3(CCN(c4cnc5ccccc5n4)CC3)C2=O)cn1 [Example 100, 5-((1-oxo-9-(quinoxalin-2-yl)-2,9-diazaspiro[5.5]undecan-2-yl)methyl)picolinonitrile] |  |  | 29% | 13%
O=C1N(Cc2ccc(-c3ncccn3)cc2)CCCC12CCN(c1cnc3ccccc3n1)CC2 [Example 101, 2-(4-(pyrimidin-2-yl)benzyl)-9-(quinoxalin-2-yl)-2,9-diazaspiro[5.5]undecan-1-one] | 2.79 µM | 1.38 µM |  | 
COc1cccc(CN2CCCC3(CCN(c4cnc5ccccc5n4)CC3)C2=O)c1F [Example 102, 2-(2-fluoro-3-methoxybenzyl)-9-(quinoxalin-2-yl)-2,9-diazaspiro[5.5]undecan-1-one] | 2.43 µM | 0.225 µM |  | 
O=C1N(Cc2cccc(N3CCCC3)n2)CCCC12CCN(c1cnc3ccccc3n1)CC2 [Example 103, 2-((6-(pyrrolidln-1-yl)pyridin-2-yl)methyl)-9-(quinoxalin-2-yl)-2,9-diazaspiro[5.5]undecan-1-one] | 2.49 µM | 1.19 µM |  | 
Cc1cc(CN2CCCC3(CCN(c4cnc5ccccc5n4)CC3)C2=O)on1 [Example 105, 2-((3-methylisoxazol-5-yl)methyl)-9-(quinoxalin-2-yl)-2,9-diazaspiro[5.5]undecan-1-one] |  | 1.38 µM | 47% | 
